Biological target: T1, P2X7 receptor (Mus musculus, UniProt Q9Z1M0)
T1 construct: gene P2rx7
T1 sequence (Q9Z1M0 1-595): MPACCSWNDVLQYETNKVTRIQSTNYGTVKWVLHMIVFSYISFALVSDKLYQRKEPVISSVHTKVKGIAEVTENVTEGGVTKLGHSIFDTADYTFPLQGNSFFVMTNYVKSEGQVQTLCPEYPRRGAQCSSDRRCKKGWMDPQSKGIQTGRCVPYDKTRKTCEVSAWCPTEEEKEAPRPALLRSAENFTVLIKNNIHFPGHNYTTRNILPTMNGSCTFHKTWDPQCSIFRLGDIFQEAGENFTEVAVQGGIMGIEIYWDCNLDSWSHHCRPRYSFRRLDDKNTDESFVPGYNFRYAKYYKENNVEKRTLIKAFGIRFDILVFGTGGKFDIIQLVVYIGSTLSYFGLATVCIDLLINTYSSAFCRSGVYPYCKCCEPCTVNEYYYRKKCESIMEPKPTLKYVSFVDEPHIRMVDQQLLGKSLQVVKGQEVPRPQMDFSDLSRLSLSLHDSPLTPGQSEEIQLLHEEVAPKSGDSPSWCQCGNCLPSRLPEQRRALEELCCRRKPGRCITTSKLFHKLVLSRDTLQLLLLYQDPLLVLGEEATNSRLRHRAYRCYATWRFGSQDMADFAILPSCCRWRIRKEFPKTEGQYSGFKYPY
Assay: agonist-induced intracellular calcium microfluorimetry and single-cell calcium imaging in mouse E14Tg2A ES cells (native receptor)
Format: cell-based

Q: With `Nc1ncnc2c1ncn2[C@@H]1O[C@H](COP(=O)(O)OP(=O)(O)OP(=O)(O)O)[C@@H](O)[C@H]1O` [ATP] as the compound, how does the EC50 read?
A: Its EC50 is 4.1 ± 1.8 µM.
